Source: publication PMC8539251, “Peimine, an Anti-Inflammatory Compound from Chinese Herbal Extracts, Modulates Muscle-Type Nicotinic Receptors” (International Journal of Molecular Sciences, 2021)

Tests used:
[1] = target: T1, muscle-type nicotinic acetylcholine receptor (nAChR) (Torpedo marmorata, UniProt P02711+Q6S3H8+Q6S3H9+Q6S3I0); test: two-electrode voltage clamp in Xenopus oocytes, agonist concentration-response; format: cell-based
T1 construct: gene CHRNA1; purified native nAChR reconstituted in asolectin lipids, microtransplanted to Xenopus oocytes; with β1, γ and δ nAChR subunits (heteropentamer 2α1, β1, δ, γ)
T1 sequence (P02711 25-461): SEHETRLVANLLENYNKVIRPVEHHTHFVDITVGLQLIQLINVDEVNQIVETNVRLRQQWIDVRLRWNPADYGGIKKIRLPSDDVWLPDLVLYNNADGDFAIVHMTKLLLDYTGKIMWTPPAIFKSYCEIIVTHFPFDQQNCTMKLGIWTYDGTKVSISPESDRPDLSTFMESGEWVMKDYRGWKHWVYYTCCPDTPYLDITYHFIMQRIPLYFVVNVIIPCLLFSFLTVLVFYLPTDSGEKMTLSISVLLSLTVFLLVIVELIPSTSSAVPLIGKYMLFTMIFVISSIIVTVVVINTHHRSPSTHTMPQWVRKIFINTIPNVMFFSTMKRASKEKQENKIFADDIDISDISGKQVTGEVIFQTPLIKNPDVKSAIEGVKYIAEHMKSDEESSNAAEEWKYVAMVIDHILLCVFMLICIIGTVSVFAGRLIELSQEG
T1 sequence (Q6S3I0 25-493): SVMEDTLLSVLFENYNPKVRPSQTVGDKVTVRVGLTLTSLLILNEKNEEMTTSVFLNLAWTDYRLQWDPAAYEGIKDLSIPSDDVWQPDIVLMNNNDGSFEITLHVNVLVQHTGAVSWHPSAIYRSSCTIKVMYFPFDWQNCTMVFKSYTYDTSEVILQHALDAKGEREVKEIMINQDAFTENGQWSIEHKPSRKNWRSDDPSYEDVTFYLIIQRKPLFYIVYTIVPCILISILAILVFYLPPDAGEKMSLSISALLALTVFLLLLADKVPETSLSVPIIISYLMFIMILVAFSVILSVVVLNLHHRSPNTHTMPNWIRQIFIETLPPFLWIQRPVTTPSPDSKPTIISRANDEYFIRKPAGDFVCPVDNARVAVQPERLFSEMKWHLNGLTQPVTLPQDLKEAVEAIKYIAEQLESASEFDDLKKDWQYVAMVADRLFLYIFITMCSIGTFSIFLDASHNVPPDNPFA
T1 sequence (Q6S3H9 18-505): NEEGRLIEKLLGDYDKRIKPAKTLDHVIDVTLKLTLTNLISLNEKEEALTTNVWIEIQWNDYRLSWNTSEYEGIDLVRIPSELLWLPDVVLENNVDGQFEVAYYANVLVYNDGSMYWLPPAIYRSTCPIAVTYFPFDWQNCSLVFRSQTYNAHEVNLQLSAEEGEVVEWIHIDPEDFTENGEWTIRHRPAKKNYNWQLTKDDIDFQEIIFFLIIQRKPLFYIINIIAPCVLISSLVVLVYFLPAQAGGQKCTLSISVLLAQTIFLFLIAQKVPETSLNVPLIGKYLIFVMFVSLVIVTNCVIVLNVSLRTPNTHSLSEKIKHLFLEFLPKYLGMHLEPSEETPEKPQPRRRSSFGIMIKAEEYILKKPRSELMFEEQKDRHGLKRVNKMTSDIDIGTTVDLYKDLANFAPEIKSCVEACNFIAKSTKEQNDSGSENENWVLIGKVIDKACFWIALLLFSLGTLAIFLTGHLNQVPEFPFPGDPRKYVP
T1 sequence (Q6S3H8 22-522): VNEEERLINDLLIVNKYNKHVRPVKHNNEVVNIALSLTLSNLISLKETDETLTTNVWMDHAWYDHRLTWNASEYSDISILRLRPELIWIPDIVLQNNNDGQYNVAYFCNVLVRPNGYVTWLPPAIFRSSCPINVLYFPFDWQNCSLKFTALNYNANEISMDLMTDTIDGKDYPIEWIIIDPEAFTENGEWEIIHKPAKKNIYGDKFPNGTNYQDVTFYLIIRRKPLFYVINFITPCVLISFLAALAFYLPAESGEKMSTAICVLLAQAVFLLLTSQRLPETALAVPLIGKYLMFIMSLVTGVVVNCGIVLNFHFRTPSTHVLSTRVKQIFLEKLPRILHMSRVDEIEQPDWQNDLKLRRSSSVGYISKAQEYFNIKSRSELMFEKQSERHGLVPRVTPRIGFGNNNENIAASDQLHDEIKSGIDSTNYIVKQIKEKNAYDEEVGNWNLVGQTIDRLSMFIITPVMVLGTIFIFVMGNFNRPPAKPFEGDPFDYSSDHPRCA

[2] = target: T1, muscle-type nicotinic acetylcholine receptor (nAChR); test: two-electrode voltage clamp in Xenopus oocytes, inhibition of […] ACh-elicited currents (peak; steady-state IC50 […]); format: cell-based

Structure (SMILES) | EC50 [1] | IC50 [2]
CC(=O)OCC[N+](C)(C)C [ACh, acetylcholine] | 31 µM | –
C[C@H]1CC[C@@H]2N(C1)C[C@H]1[C@@H]3C[C@H]4[C@@H](C[C@H](O)[C@H]5C[C@@H](O)CC[C@@]54C)[C@@H]3CC[C@@H]1[C@]2(C)O [Pm, Peimine] | – | 2.9 µM
